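The compound was tested at five concentrations on cells cultured in 96-well plates, with a 48-hour exposure period. Abbreviation: GI50, concentration required for 50% inhibition of growth.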 Active and inactive are the calls of the source. Cut-off read from the data, not from the text of the source: active = GI50 up to about 1.1 µM and inactive = higher.
Key:
Experiment in all cases: growth of human tumour cells (NCI), 48 h
NCI-H460 = tested on: NCI-H460
SK-MEL-5 = tested on: SK-MEL-5
SF-295 = tested on: SF-295
A549 = tested on: A549
MOLT-4 = tested on: MOLT-4
HOP-62 = tested on: HOP-62
MDA-N = tested on: MDA-N
BT-549 = tested on: BT-549
UACC-62 = tested on: UACC-62
UACC-257 = tested on: UACC-257
SF-268 = tested on: SF-268
HL-60 = tested on: HL-60
NCI-H23 = tested on: NCI-H23
LOX IMVI = tested on: LOX IMVI
CCRF-CEM = tested on: CCRF-CEM
Malme-3M = tested on: Malme-3M
COLO 205 = tested on: COLO 205
NCI-H226 = tested on: NCI-H226
HT-29 = tested on: HT-29
MCF7 = tested on: MCF7
SNB-75 = tested on: SNB-75
U-251 = tested on: U-251
OVCAR-3 = tested on: OVCAR-3
ACHN = tested on: ACHN
SNB-19 = tested on: SNB-19
TK-10 = tested on: TK-10
DU-145 = tested on: DU-145
MDA-MB-231 = tested on: MDA-MB-231
SR = tested on: SR
UO-31 = tested on: UO-31
M14 = tested on: M14
MDA-MB-435 = tested on: MDA-MB-435
SW-620 = tested on: SW-620
HOP-92 = tested on: HOP-92
NCI-H522 = tested on: NCI-H522
RXF 393 = tested on: RXF 393
A498 = tested on: A498
HCT-116 = tested on: HCT-116
K562 = tested on: K562
HCT-15 = tested on: HCT-15
SK-OV-3 = tested on: SK-OV-3
IGROV-1 = tested on: IGROV-1
CAKI-1 = tested on: CAKI-1
OVCAR-5 = tested on: OVCAR-5
SK-MEL-2 = tested on: SK-MEL-2
RPMI-8226 = tested on: RPMI-8226
KM12 = tested on: KM12
HCC 2998 = tested on: HCC 2998
T47D = tested on: T47D
EKVX = tested on: EKVX
Hs-578T = tested on: Hs-578T
SK-MEL-28 = tested on: SK-MEL-28
PC-3 = tested on: PC-3
OVCAR-8 = tested on: OVCAR-8
786-0 = tested on: 786-0
SN12C = tested on: SN12C
OVCAR-4 = tested on: OVCAR-4
NCI/ADR-RES = tested on: NCI/ADR-RES
SF-539 = tested on: SF-539

For `COC(=O)[C@@H]1C=CCN1S(=O)(=O)c1ccc(C)cc1`, the GI50 (NCI-H460) was 42.5 µM (inactive), the GI50 (SK-MEL-5) was 59.6 µM (inactive) and the GI50 (SF-295) was > 100 µM (inactive). For the same molecule, the GI50 (A549) was > 100 µM (inactive), the GI50 (MOLT-4) was 37.4 µM (inactive) and the GI50 (HOP-62) was > 100 µM (inactive). The GI50 (MDA-N) was 29.2 µM (inactive), the GI50 (BT-549) was > 100 µM (inactive) and the GI50 (UACC-62) was 38 µM (inactive). For the same molecule, the GI50 (UACC-257) was > 100 µM (inactive), the GI50 (SF-268) was > 100 µM (inactive) and the GI50 (HL-60) was 24.2 µM (inactive). For the same molecule, the GI50 (NCI-H23) was > 100 µM (inactive), the GI50 (LOX IMVI) was > 100 µM (inactive) and the GI50 (CCRF-CEM) was 21.8 µM (inactive). The GI50 (Malme-3M) was 71.6 µM (inactive), the GI50 (COLO 205) was > 100 µM (inactive) and the GI50 (NCI-H226) was > 100 µM (inactive). The GI50 (HT-29) was > 100 µM (inactive), the GI50 (MCF7) was > 100 µM (inactive) and the GI50 (SNB-75) was > 100 µM (inactive). The GI50 (U-251) was 31.1 µM (inactive), the GI50 (OVCAR-3) was 50.8 µM (inactive) and the GI50 (ACHN) was > 100 µM (inactive). For the same molecule, the GI50 (SNB-19) was > 100 µM (inactive), the GI50 (TK-10) was > 100 µM (inactive) and the GI50 (DU-145) was > 100 µM (inactive). The GI50 (MDA-MB-231) was > 100 µM (inactive), the GI50 (SR) was 20.5 µM (inactive) and the GI50 (UO-31) was > 100 µM (inactive). For the same molecule, the GI50 (M14) was 48.1 µM (inactive), the GI50 (MDA-MB-435) was 13.2 µM (inactive) and the GI50 (SW-620) was > 100 µM (inactive). The GI50 (HOP-92) was 55.5 µM (inactive), the GI50 (NCI-H522) was 98.4 µM (inactive) and the GI50 (RXF 393) was 50.5 µM (inactive). For the same molecule, the GI50 (A498) was > 100 µM (inactive), the GI50 (HCT-116) was 34.2 µM (inactive) and the GI50 (K562) was 31.9 µM (inactive). The GI50 (HCT-15) was 37.5 µM, the GI50 (SK-OV-3) was > 100 µM (inactive) and the GI50 (IGROV-1) was > 100 µM (inactive). The GI50 (CAKI-1) was 20.2 µM (inactive), the GI50 (OVCAR-5) was > 100 µM (inactive) and the GI50 (SK-MEL-2) was > 100 µM (inactive). For the same molecule, the GI50 (RPMI-8226) was > 100 µM (inactive), the GI50 (KM12) was > 100 µM (inactive) and the GI50 (HCC 2998) was 70.6 µM (inactive). The GI50 (T47D) was > 100 µM (inactive), the GI50 (EKVX) was > 100 µM (inactive) and the GI50 (Hs-578T) was > 100 µM (inactive). The GI50 (SK-MEL-28) was 93.1 µM (inactive), the GI50 (PC-3) was > 100 µM (inactive) and the GI50 (OVCAR-8) was > 100 µM (inactive). The GI50 (786-0) was 32.9 µM (inactive), the GI50 (SN12C) was > 100 µM (inactive) and the GI50 (OVCAR-4) was > 100 µM (inactive). For the same molecule, the GI50 (NCI/ADR-RES) was > 100 µM (inactive) and the GI50 (SF-539) was 60.1 µM (inactive).
